Experiments:
Type in all cases: cell-based
Candida albicans = assay: Antimicrobial activity, live microbial count (CFU) after contact in suspension
Protocol: (§1) The test microorganisms were inoculated from a strain culture into an agar-containing Caso medium (Merck, Darmstadt, Germany) and incubated for 24 h to 48 hours at 25 to 37° C., depending on the microorganism. A Caso slanted agar tube was inoculated with this preculture and again incubated under identical conditions.
(§2) To prepare the microorganism suspension to be tested, the microorganisms were washed off with 5 ml of phosphate-buffer saline (PBS, 50 mM potassium phosphate pH6, 100 mM NaCl), made up to 12.5 ml with PBS and resuspended by vortexing. To carry out the following test, this microorganism suspension was diluted to a microbial count of from 2U+5 to 8U+5.
(§3) The products to be tested made as a stock solution; they contained 10 g of ethanol, 0.68 g of macrogol glycerol hydroxystearate 40 (Cremophor® RH40, Omikron, Neckarwestheim, Germany), 1 g of the active substance to be tested and 38.32 g of double-distilled water. This solution was mixed with the microorganism suspension at a ratio of 1:1 in the test and gave an active substance concentration in the test of 1%. If it was intended to test a lower active substance concentration than 1%, the stock solution of the active substance was made up at a correspondingly lower concentration. The substances tested were the ether guanidine of example 1, and double distilled water by way of negative control.
(§4) To carry out the test, 1 ml-Eppendorf cubes were filled with 500 μl of microorganism suspension and with 500 μl stock solution and the contents were mixed carefully. After 20 min, 1 h and 3 h, respectively, 10 μl were removed from the tubes, and the live microbial count (colony-forming units, CFU) were determined by plating out various dilution of these test mixtures on Caso agar.

Malassezia furfur = assay: as above
Protocol: as §1, §2, §3, §4

Corynebacterium xerosis = assay: as above
Protocol: as §1, §2, §3, §4

Streptococcus mutans = assay: as above
Protocol: as §1, §2, §3, §4

[1] = system: Staphylococcus epidermidis; assay: as above
Protocol: as §1, §2, §3, §4

Propionibacterium acnes = assay: as above
Protocol: as §1, §2, §3, §4

test microorganisms = assay: Antimicrobial activity test, overall statement; details: overall observation; microbial count in negative controls unchanged
Protocol: as §1, §2
The products to be tested made as a stock solution; they contained 10 g of ethanol, 0.68 g of macrogol glycerol hydroxystearate 40 (Cremophor® RH40, Omikron, Neckarwestheim, Germany), 1 g of the active substance to be tested and 38.32 g of double-distilled water. […]
as §4

[2] = 1% Ex. 1, 0 min (starting count)

C12-15-oxypropylguanidinium chloride [Ex. 1]
CFU/ml 0 min (Candida albicans; 0.01% Ex. 1, 0 min (starting count)): 3.9E+5 CFU/ml
CFU/ml 20 min (Candida albicans; 0.01% Ex. 1, 20 min): 4.7E+5 CFU/ml
CFU/ml 60 min (Candida albicans; 0.01% Ex. 1, 60 min): 2.2E+5 CFU/ml
CFU/ml 180 min (Candida albicans; 0.01% Ex. 1, 180 min): 6.1E+4 CFU/ml
CFU/ml 0 min (Candida albicans; 0.1% Ex. 1, 0 min (starting count)): 3.9E+5 CFU/ml
CFU/ml 20 min (Candida albicans; 0.1% Ex. 1, 20 min): 5.5E+5 CFU/ml
CFU/ml 60 min (Candida albicans; 0.1% Ex. 1, 60 min): 4.3E+4 CFU/ml
CFU/ml 180 min (Candida albicans; 0.1% Ex. 1, 180 min): <2.0E+2 CFU/ml
CFU/ml 0 min (Candida albicans; [2]): 3.9E+5 CFU/ml
CFU/ml 20 min (Candida albicans; 1% Ex. 1, 20 min): <2.0E+2 CFU/ml
CFU/ml 60 min (Candida albicans; 1% Ex. 1, 60 min): <2.0E+2 CFU/ml
CFU/ml 180 min (Candida albicans; 1% Ex. 1, 180 min): <2.0E+2 CFU/ml
CFU/ml 0 min (Malassezia furfur; [2]): 1.4E+5 CFU/ml
CFU/ml 20 min (Malassezia furfur; 1% Ex. 1, 20 min): <2.0E+2 CFU/ml
CFU/ml 60 min (Malassezia furfur; 1% Ex. 1, 60 min): <2.0E+2 CFU/ml
CFU/ml 180 min (Malassezia furfur; 1% Ex. 1, 180 min): <2.0E+2 CFU/ml
CFU/ml 0 min (Corynebacterium xerosis; [2]): 1.7E+5 CFU/ml
CFU/ml 20 min (Corynebacterium xerosis; 1% Ex. 1, 20 min): <2.0E+2 CFU/ml
CFU/ml 60 min (Corynebacterium xerosis; 1% Ex. 1, 60 min): <2.0E+2 CFU/ml
CFU/ml 180 min (Corynebacterium xerosis; 1% Ex. 1, 180 min): <2.0E+2 CFU/ml
CFU/ml 0 min (Streptococcus mutans; [2]): 3.2E+5 CFU/ml
CFU/ml 20 min (Streptococcus mutans; 1% Ex. 1, 20 min): <2.0E+2 CFU/ml
CFU/ml 60 min (Streptococcus mutans; 1% Ex. 1, 60 min): <2.0E+2 CFU/ml
CFU/ml 180 min (Streptococcus mutans; 1% Ex. 1, 180 min): <2.0E+2 CFU/ml
CFU/ml 0 min [1, 2]: 1.2E+5 CFU/ml
CFU/ml 20 min ([1]; 1% Ex. 1, 20 min): <2.0E+2 CFU/ml
CFU/ml 60 min ([1]; 1% Ex. 1, 60 min): <2.0E+2 CFU/ml
CFU/ml 180 min ([1]; 1% Ex. 1, 180 min): <2.0E+2 CFU/ml
CFU/ml 0 min (Propionibacterium acnes; [2]): 2.0E+5 CFU/ml
CFU/ml 20 min (Propionibacterium acnes; 1% Ex. 1, 20 min): <2.0E+2 CFU/ml
CFU/ml 60 min (Propionibacterium acnes; 1% Ex. 1, 60 min): <2.0E+2 CFU/ml
CFU/ml 180 min (Propionibacterium acnes; 1% Ex. 1, 180 min): <2.0E+2 CFU/ml
antimicrobial activity (test microorganisms): pronounced antimicrobial activity

— patent US20120134948A1, “ANTIMICROBIAL ETHER GUANIDINES” (EVONIK GOLDSCHMIDT GMBH, priority 2009, published 2012)
